Measurements published in patent publication US6822146B2, “Sulfonylurea-tolerant sunflower line M7” (priority 2000, dated 2004).
Where two headings read alike, the source gives them in different places.

How the values were obtained:
BC4-M5M12 = experiment: Test B greenhouse phytotoxicity, BC4-M5M12; assay type: in vivo, sunflower; conditions: in vivo
Experimental: (§1) A greenhouse experiment was conducted to evaluate the spectrum of tolerance of three homozygous resistant mutants to various herbicides inhibiting acetolactate synthase (ALS) as their mode of action. The inbred lines tested were the 5th generation self-pollinated maintainers, M5M7, M5M11 and M5M12, as well as the 4th generation male sterile back-crosses BC4-M5M7, BC4-M5M11 and BC4-M5M12. Treatments of formulated herbicides were applied post-emergence at the 4-leaf stage. Application rates of the test herbicides were chosen to coincide with the rates commonly used in the crops for which they are registered. The application rate of imazethapyr was chosen to match the rate recommended to control parasitic weeds in sunflowers by L. García-Torres et al., Weed Technology 1995, 9, 819-824. Wild type H89 inbred sunflower was not included in this test, because the many of the tested herbicides are known to be efficacious in controlling volunteer sunflower as a weed. Treatments were replicated twice. […] A rating of 0% phytotoxicity means no crop injury.

BC4-M5M7 = experiment: Test B greenhouse phytotoxicity, BC4-M5M7; assay type: in vivo, sunflower; conditions: in vivo
Experimental: as §1

M5M7 = experiment: Test B greenhouse phytotoxicity, M5M7; assay type: in vivo, sunflower; conditions: in vivo
Experimental: as §1

M5M11 = experiment: Test B greenhouse phytotoxicity, M5M11; assay type: in vivo, sunflower; conditions: in vivo
Experimental: as §1

'M11' = experiment: Tolerance of M11 to rimsulfuron; conditions: in vivo
M5M12 = experiment: Test B greenhouse phytotoxicity, M5M12; assay type: in vivo, sunflower; conditions: in vivo
Experimental: as §1

BC4-M5M11 = experiment: Test B greenhouse phytotoxicity, BC4-M5M11; assay type: in vivo, sunflower; conditions: in vivo
Experimental: as §1

[1] = test system: Homozygous resistant inbred lines, BC3-M4M12 (I), BC3-M4M11 (J) and BC3-M4M7 (K); experiment: Test A summary, homozygous resistant inbred lines; conditions: in vivo
Experimental: In a small field trial, the sunflower varieties described in Table 4 were sprayed post-emergence with a variety of sulfonylurea herbicide treatments.
Broadcast post-emergence applications of formulated sulfonylurea herbicides were performed at the 6-leaf development stage using four randomly distributed replications. Application rates were chosen to match the usual use rates of these herbicides in the crops they are registered in Europe. All herbicides except for metsulfuron-methyl were sprayed in combination with Citowet® non-ionic ethoxylated alcohol at 0.25% volume of formulated product per volume of water applied per hectare.
The evaluation of the maximum (i.e. peak) injury to sunflower varieties by sulfonylurea herbicides was measured by visual ratings, which are listed in Table 5. A rating of 0% phytotoxicity means no crop injury. […] A rating of 100% means the complete destruction of all plants.

H89A × M4M11 = assay type: in vivo, sunflower; conditions: variety G
From the text: (§2) To generate the hybrids C, D and E, the fourth generation self-pollinated maintainer mutant lines M4M12, M4M11 and M4M7 were chemically sterilized by applying at the bud “star” flower stage a small amount of gibberellic acid solution to sterilize the pollen according to the general method described in Sunflower Science Technology, J. F. Carter ed. (Number 19 in the series “Agronomy”) pp. 339-386. This treatment enables maintainer plants to behave as CMS inbred lines and allows the production of heterozygous resistant hybrids, with the herbicide resistant source coming from the female side. Such crosses allowed evaluating the sexual effect of the mutation source when introduced on the female side of a cross as described in crosses C, D and E versus the male side of a cross as described in crosses F, G and H. Labels I, J and K identify third generation CMS mutant lines crossed with fourth generation maintainer lines to maintain the highly heritable mutant trait in a male sterile homozygous resistant environment. One skilled in sunflower breeding art understands the meaning of such crosses.
(§3) A rating of 0% phytotoxicity means no crop injury.

[2] = test system: Inbred line control: H89A; assay type: in vivo, sunflower; conditions: variety B
From the text: as §2, §3

[3] = test system: Hybrid control: H89A × RHA274; assay type: in vivo, sunflower; conditions: variety A
From the text: as §2, §3

H89A × M4M7 = assay type: in vivo, sunflower; conditions: variety H
From the text: as §2, §3

H89A × M4M12 = assay type: in vivo, sunflower; conditions: variety F
From the text: as §2, §3

[4] = test system: acetolactate synthase (ALS) from M2E24; experiment: ALS activity remaining, M2E24 extract; assay type: biochemical, sunflower; conditions: mutant line selected with rimsulfuron, in the presence of rimsulfuron
[5] = test system: homozygous progeny of the three mutant sources; assay type: in vivo, sunflower; conditions: Test B application rates, post-emergence
Experimental: as §1

BC2-M3M11 = experiment: Test G control of volunteer sunflower, BC2-M3M11; assay type: in vivo; conditions: rated 4 weeks after application, scale 0-100
[6] = test system: ALS enzymes of the mutant lines selected with thifensulfuron-methyl; experiment: ALS activity of mutant lines relative to wild-type H89B; assay type: biochemical, sunflower; conditions: in the presence of thifensulfuron-methyl
BC2-M3M12 = experiment: Test G control of volunteer sunflower, BC2-M3M12; assay type: in vivo; conditions: rated 4 weeks after application, scale 0-100
[7] = test system: mutants originating from M11 and M12; conditions: tribenuron-methyl up to 60 g a.i./ha; others at Test G rates
From the text: This test involved sulfonylurea-resistant sunflower progeny BC2-M3M11 and BC2-M3M12, derived from M11 and M12, respectively. Also, a sulfonylurea-susceptible hybrid, H89A×RHA274, was included for comparison. Plants were sprayed with formulated herbicides at the 4-leaf stage. The efficacy of the treatments on the sunflowers was visually rated 4 weeks after application, using a scale where 0 means no control of the sunflowers, 85 means sufficient efficacy level to stop plants from flowering and propagating, and 100 means a complete destruction of the mutants.
Weed control in sugar beet requires 2-3 herbicide applications per season to efficiently control weeds in this slow growing crop.

[8] = test system: H89A × RHA274 (sulfonylurea-susceptible hybrid); experiment: Test G control of volunteer sunflower, H89A × RHA274; assay type: in vivo; conditions: rated 4 weeks after application, scale 0-100

SMILES: CCS(=O)(=O)c1cccnc1S(=O)(=O)NC(=O)Nc1nc(OC)cc(OC)n1 [Rimsulfuron, rimsulfuron]
- Maximum Phytotoxicity (BC4-M5M12): 65%
- Maximum Phytotoxicity (BC4-M5M7): 45%
- Maximum Phytotoxicity (M5M7): 52.5%
- Maximum Phytotoxicity (M5M11): 65%
- tolerance of M11 ('M11'): not tolerant
- Maximum Phytotoxicity (M5M12): 55%
- Maximum Phytotoxicity (BC4-M5M11): 47.5%
- tolerance of homozygous resistant inbred lines I, J, K [1]: as susceptible as the standards
- Maximum Phytotoxicity (H89A × M4M11; 15 g a.i./ha post-emergence): 98%
- Maximum Phytotoxicity (H89A × M4M11; 30 g a.i./ha post-emergence): 100%
- Maximum Phytotoxicity ([2]; 15 g a.i./ha post-emergence): 100%
- Maximum Phytotoxicity ([2]; 30 g a.i./ha post-emergence): 100%
- Maximum Phytotoxicity ([3]; 15 g a.i./ha post-emergence): 100%
- Maximum Phytotoxicity ([3]; 30 g a.i./ha post-emergence): 100%
- Maximum Phytotoxicity (H89A × M4M7; 15 g a.i./ha post-emergence): 96%
- Maximum Phytotoxicity (H89A × M4M7; 30 g a.i./ha post-emergence): 100%
- Maximum Phytotoxicity (H89A × M4M12; 15 g a.i./ha post-emergence): 98%
- Maximum Phytotoxicity (H89A × M4M12; 30 g a.i./ha post-emergence): 100%
- ALS activity retained relative to wild-type ALS from H89B [4]: 4-6 times
- tolerance of the mutants [5]: somewhat sensitive

SMILES: COC(=O)c1sccc1S(=O)(=O)NC(=O)Nc1nc(C)nc(OC)n1 [Thifensulfuron-methyl, thifensulfuron-methyl]
- Efficacy on BC2-M3M11 (BC2-M3M11; 10 g a.i./ha): 2
- Efficacy on BC2-M3M11 (BC2-M3M11; 20 g a.i./ha): 17
- Efficacy on BC2-M3M11 (BC2-M3M11; 40 g a.i./ha): 50
- Efficacy on BC2-M3M11 (BC2-M3M11; 60 g a.i./ha): 74
- ALS activity retained relative to wild-type ALS from H89B [6]: 2-6 times
- Efficacy on BC2-M3M12 (BC2-M3M12; 10 g a.i./ha): 10
- Efficacy on BC2-M3M12 (BC2-M3M12; 20 g a.i./ha): 16
- Efficacy on BC2-M3M12 (BC2-M3M12; 40 g a.i./ha): 32
- Efficacy on BC2-M3M12 (BC2-M3M12; 60 g a.i./ha): 58
- resistance/tolerance of the mutants [7]: to a lesser extent than with tribenuron-methyl
- Efficacy on H89A × RHA274 ([8]; 10 g a.i./ha, 4-leaf stage): 100
- Efficacy on H89A × RHA274 ([8]; 20 g a.i./ha): 100
- Efficacy on H89A × RHA274 ([8]; 40 g a.i./ha): 100
- Efficacy on H89A × RHA274 ([8]; 60 g a.i./ha): 100
- tolerance of homozygous resistant inbred lines I, J, K [1]: less susceptible than the standards
- tolerance of homozygous resistant lines compared with heterozygous hybrids [1]: the homozygous resistant lines were more tolerant
- Maximum Phytotoxicity (H89A × M4M11; 35 g a.i./ha post-emergence): 81%
- Maximum Phytotoxicity (H89A × M4M11; 70 g a.i./ha post-emergence): 90%
- Maximum Phytotoxicity ([2]; 35 g a.i./ha post-emergence): 100%
- Maximum Phytotoxicity ([2]; 70 g a.i./ha post-emergence): 100%
- Maximum Phytotoxicity ([3]; 35 g a.i./ha post-emergence): 100%
- Maximum Phytotoxicity ([3]; 70 g a.i./ha post-emergence): 99%
- Maximum Phytotoxicity (H89A × M4M7; 35 g a.i./ha post-emergence): 80%
- Maximum Phytotoxicity (H89A × M4M7; 70 g a.i./ha post-emergence): 90%
- Maximum Phytotoxicity (H89A × M4M12; 35 g a.i./ha post-emergence): 78%
- Maximum Phytotoxicity (H89A × M4M12; 70 g a.i./ha post-emergence): 89%
